Reference: patent publication US20130189352A1 (ZHEJIANG UNIVERSITY, priority 2011, published 2013)
Values after ≈ are worked out from the molar mass of the structure shown. Read-outs that look alike come from different tables or passages of the source.

Experiments:
[1] = tested on: human breast cancer cells (MCF-7); assay: MTT cytotoxicity test, MCF-7; format: cell-based; details: read-out: IC50 MCF-7
Description: (§1) The cells suspension solution was seeded in 96-well plates with 100 μL solution per well containing 5000-10000 cells. […] The drug-loaded liposomes and doxorubicin were separately solved in saline solutions. […] These different formulations were added 25 μl per well in increasing concentrations to the wells of the 96-well plate. The cells were allowed to grow for 24 hours before adding 31.5 μl MTT (5 mg/mL) per well. Finally, about 4 hours later, all of the culture medium was removed and the precipitates were dissolved in 200 μl dimethyl sulfoxide (DMSO). […] The above tests were repeated three times for each group and each concentration has four wells. […] The IC50 values were calculated by IC50.exe software.

[2] = tested on: doxorubicin-resistant human breast cancer MCF-7 (MCF-7/ADR); assay: MTT cytotoxicity test, MCF-7/ADR; format: cell-based; details: NCI/ADR-RES, read-out: IC50 MCF-7/ADR
Description: as §1

[3] = tested on: human promyelocytic leukemia cells (HL60); assay: MTT cytotoxicity test, HL60; format: cell-based; details: read-out: IC50 HL60
Description: as §1

[4] = tested on: doxorubicin-resistance human promyelocytic leukemia cell (HL60/ADR); assay: MTT cytotoxicity test, HL60/ADR; format: cell-based; details: read-out: IC50 HL60/ADR
Description: as §1

[5] = cited from earlier work
[6] = MTT, 24 hours drug exposure, concentrations based on the amount of doxorubicin

| SMILES | IC50 ([1]; MCF7, MTT, 24 hours drug exposure, concentrations based on the amount of doxorubicin) | IC50 [2, 6] | IC50 ([3]; HL-60, MTT, 24 hours drug exposure, concentrations based on the amount of doxorubicin) | IC50 [4, 6] | PKa [5] | IC50 ([1]; MCF7, 24 h) | IC50 ([2]; 24 h) | IC50 ([3]; HL-60, 24 h) | IC50 ([4]; 24 h) |
| --- | --- | --- | --- | --- | --- | --- | --- | --- | --- |
| COc1cccc2c1C(=O)c1c(O)c3c(c(O)c1C2=O)C[C@@](O)(C(=O)CO)C[C@@H]3O[C@H]1C[C@H](N)[C@H](O)[C@H](C)O1 [Control 1, doxorubicin] | 0.4 µg/mL (≈ 0.736 µM) | 15.7 µg/mL (≈ 28.9 µM) | 0.4 µg/mL (≈ 0.736 µM) | 13.6 µg/mL (≈ 25 µM) | 4.0 |  |  |  |  |
| CCN(CC)CCCC(C)Nc1ccnc2cc(Cl)ccc12 (stereo not drawn) [Control 2, chloroquine] |  |  |  |  |  | 18.1 µg/mL (≈ 56.6 µM) | 23.3 µg/mL (≈ 72.8 µM) | 17.3 µg/mL (≈ 54.1 µM) | 11.2 µg/mL (≈ 35 µM) |
